Test results taken from US8637013B2, “Treatment of drug-related side effect and tissue damage by targeting the CD24-HMGB1-Siglec10 axis” (The Regents of The University of Michigan, priority 2009, dated 2014).
No end group written: not given here.

How the values were obtained:
[1] = test system: sialidase activity in the sera of sepsis mice; test: Serum sialidase activity of CLP mice (Amplex Red Neuraminidase assay kit); type: biochemical, mouse; settings: sera from CLP mice mixed with inhibitors prior to the assay
[2] = molecular target: T1, CD24-Siglec 10 interaction (Homo sapiens, UniProt Q96LC7); test: Inhibition of CD24-Siglec 10 interaction by sialosides (microplate binding assay); settings: for Inhibition of CD24-Siglec 10 interaction: Siglec 10Fc preincubated with sialoside, then added to plate-bound CD24Fc
T1 construct: Recombinant protein consisting of human IgG Fc and extracellular domains of Siglec 10; purchased R&D Systems
T1 sequence (Q96LC7 17-550 limits assumed): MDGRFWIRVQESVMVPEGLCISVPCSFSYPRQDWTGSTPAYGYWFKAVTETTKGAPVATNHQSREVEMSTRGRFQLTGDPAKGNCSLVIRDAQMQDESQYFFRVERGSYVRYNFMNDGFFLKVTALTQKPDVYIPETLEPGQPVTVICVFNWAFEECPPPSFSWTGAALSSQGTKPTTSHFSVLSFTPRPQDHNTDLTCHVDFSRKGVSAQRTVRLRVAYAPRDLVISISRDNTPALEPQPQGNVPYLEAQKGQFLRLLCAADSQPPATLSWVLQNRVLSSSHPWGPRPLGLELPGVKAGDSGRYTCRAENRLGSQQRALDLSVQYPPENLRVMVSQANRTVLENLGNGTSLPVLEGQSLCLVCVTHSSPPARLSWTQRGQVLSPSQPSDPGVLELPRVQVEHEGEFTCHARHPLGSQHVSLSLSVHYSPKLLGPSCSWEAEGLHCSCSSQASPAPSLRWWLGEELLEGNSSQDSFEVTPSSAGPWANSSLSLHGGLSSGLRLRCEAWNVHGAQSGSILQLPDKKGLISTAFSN

[3] = test system: AAP-induced liver damage in WT B6 mice; test: AAP-induced liver damage in WT mice treated with CD24Fc; type: in vivo; settings: AAP 16 mg/mouse, 5 hours after AAP, vs control IgG Fc
HMGB1 [4] = test: Co-immunoprecipitation of HMGB1 with CD24-Fc; type: binding, human; settings: FLAG-tagged constructs in COS7 cell lysates
HMGB1 [5] = molecular target: T2, HMGB1 (Homo sapiens, UniProt P09429); test: Co-immunoprecipitation of HMGB1 with CD24-Fc; type: binding; settings: vs control IgG-Fc; cation-dependent
T2 construct: the full-length HMGB-1 expression vector was transfected into TSA cells; FLAG; made in house; host or cells: TSA cells (purified protein)
T2 sequence (P09429 1-215): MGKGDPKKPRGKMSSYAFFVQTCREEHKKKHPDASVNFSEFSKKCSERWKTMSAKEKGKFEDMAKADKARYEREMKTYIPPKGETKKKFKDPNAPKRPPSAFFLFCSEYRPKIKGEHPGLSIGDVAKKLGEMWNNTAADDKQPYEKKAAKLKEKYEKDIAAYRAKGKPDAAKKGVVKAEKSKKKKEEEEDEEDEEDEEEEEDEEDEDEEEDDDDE

O=C(CO)N[C@H]1[C@H]([C@H](O)[C@H](O)CO)OC(C(=O)O)=C[C@@H]1O [Neu5Gc2en, 2,3-dehydro-2-deoxy-N-glycolylneuraminic acid]
Inhibition of sialidase activity in the serum of sepsis mice [1]: partial inhibition

CC(=O)N[C@H]1[C@H]([C@H](O)[C@H](O)CO)O[C@@](O[C@H]2[C@@H](O)[C@@H](CO)O[C@@H](O[C@H]3[C@H](O)[C@@H](O)C(O)O[C@@H]3CO)[C@@H]2O)(C(=O)O)C[C@@H]1O (stereo partly drawn) [Neu5Acα2-3Lac]
Inhibition of CD24-Siglec 10 interaction [2]: efficient inhibition

CC(=O)N[C@H]1[C@H]([C@H](O)[C@H](O)CO)O[C@@](OC[C@H]2O[C@@H](O[C@H]3[C@H](O)[C@@H](O)C(O)O[C@@H]3CO)[C@H](O)[C@@H](O)[C@H]2O)(C(=O)O)C[C@@H]1O (stereo partly drawn) [Neu5Acα2-6Lac]
Relative potency in inhibiting CD24-Siglec 10 interaction ([2]; 2-6 versus 2-3 linked sialoside): more potent | Inhibition of CD24-Siglec 10 interaction [2]: efficient inhibition

CD24Fc: fusion protein that binds to HMGB1 and Siglec 10 (SETTTGTSSNSSQSTSNSGLAPNPTNATTK; not fully specified (C-terminus); also: fused to dimerising Fc (not given here))
Inflammatory cytokines in serum (IL-6, IL-10, MCP-1, IFN-γ, TNF-α) [3]: massive reduction | Immunoprecipitation of box A-containing HMGB1 mutant (HMGB1 [4]): not the box A-containing mutant | Immunoprecipitation of full length HMGB1 and box B-containing mutant (HMGB1 [4]): immunoprecipitated | Coimmunoprecipitation of recombinant HMGB-1 (HMGB1 [5]): specifically coimmunoprecipitated

CC(=O)N[C@@H]1C(O)C=C(C(=O)O)OC1[C@H](O)[C@H](O)CO (stereo partly drawn) [Compound 1, 2,3-dehydro-2-deoxy-N-acetylneuraminic acid]
Inhibition of sialidase activity in the serum of sepsis mice [1]: minimal effect
